Reference: ChEMBL document CHEMBL1125916 (1991)

Experiment: In vitro cytotoxicity in BALB/c3T3 mouse embryo fibroblasts.
Details: BALB/c3T3, read-out: LC50

For O=P1(N(CCCl)CCCl)NCCCO1 (stereo unspecified) [CYCLOPHOSPHAMIDE ANHYDROUS], the CC50 was 37.6 µM.
